Values after ≈ are worked out from the molar mass of the structure shown.
Key:
Format in all cases: functional
Pseudomonas aeruginosa [1] = test: Antibacterial activity against Pseudomonas aeruginosa PAO1 deltadacB by broth microdilution method
Pseudomonas aeruginosa [2] = test: Antibacterial activity against Pseudomonas aeruginosa PAO1 deltadacBdeltaampD by broth microdilution method
Pseudomonas aeruginosa [3] = test: Antibacterial activity against Pseudomonas aeruginosa PAO1 deltadacBdeltadacC by broth microdilution method
Pseudomonas aeruginosa [4] = test: Antibacterial activity against Pseudomonas aeruginosa PAO1 deltadacBdeltapbpGdeltadacC by broth microdilution method
Pseudomonas aeruginosa [5] = test: Antibacterial activity against Pseudomonas aeruginosa PAO1 deltaDdeltsDh2deltaDh3 by broth microdilution method
Pseudomonas aeruginosa [6] = test: Antibacterial activity against Pseudomonas aeruginosa PAO1 by broth microdilution method
Pseudomonas aeruginosa [7] = test: Antibacterial activity against Pseudomonas aeruginosa PAO1 deltaampD by broth microdilution method
Pseudomonas aeruginosa [8] = test: Antibacterial activity against PAOdeltaC by broth microdilution method
Pseudomonas aeruginosa [9] = test: Antibacterial activity against Pseudomonas aeruginosa PAO1 deltaC+pUCP-(PDC-1) by broth microdilution method
Pseudomonas aeruginosa [10] = test: Antibacterial activity against Pseudomonas aeruginosa PAO1 deltaC+pUCP-(PDC-5) by broth microdilution method
Pseudomonas aeruginosa [11] = test: Antibacterial activity against Pseudomonas aeruginosa PAO1 23/14-053 (ST-309) by broth microdilution method
Pseudomonas aeruginosa [12] = test: Antibacterial activity against Pseudomonas aeruginosa PAO1 13/09-018 (ST-175) by broth microdilution method
Pseudomonas aeruginosa [13] = test: Antibacterial activity against Pseudomonas aeruginosa PAO1 17/14-017 (ST-235) by broth microdilution method
Pseudomonas aeruginosa [14] = test: Antibacterial activity against Pseudomonas aeruginosa PAO1 36/14-210 (ST-235) by broth microdilution method
Pseudomonas aeruginosa [15] = test: Antibacterial activity against Pseudomonas aeruginosa PAO1 53/22-113 (ST-244) by broth microdilution method
Pseudomonas aeruginosa [16] = test: Antibacterial activity against Pseudomonas aeruginosa PAO1 6/04-224 (ST-175) by broth microdilution method
Pseudomonas aeruginosa [17] = test: Antibacterial activity against Pseudomonas aeruginosa PAO1 PAHUAC-14 (ST-966) by broth microdilution method
Pseudomonas aeruginosa [18] = test: Antibacterial activity against Pseudomonas aeruginosa PAO1 PAHUAC-27(ST-22) by broth microdilution method
Pseudomonas aeruginosa [19] = test: Antipseudomonal activity against Pseudomonas aeruginosa PAO1 deltadacB assessed as AmpC RNA expression by RT-PCR analysis relative to Pseudomonas aeruginosa PAO1
Pseudomonas aeruginosa [20] = test: Antipseudomonal activity against pseudomonas aeruginosa PAO deltadacBdeltaampD assessed as AmpC RNA expression by RT-PCR analysis Pseudomonas aeruginosa PAO1
Pseudomonas aeruginosa [21] = test: Antipseudomonal activity against pseudomonas aeruginosa PAO deltadacBdeltadacC assessed as AmpC RNA expression by RT-PCR analysis relative to Pseudomonas aeruginosa PAO1
Pseudomonas aeruginosa [22] = test: Antipseudomonal activity against pseudomonas aeruginosa PAO deltadacBdeltapbpGdeltadacC assessed as AmpC RNA level relative to Pseudomonas aeruginosa PAO1
Pseudomonas aeruginosa [23] = test: Antipseudomonal activity against pseudomonas aeruginosa PAO deltaDdeltsDh2deltaDh3 assessed as AmpC RNA level relative to Pseudomonas aeruginosa PAO1
Pseudomonas aeruginosa [24] = test: Antipseudomonal activity against pseudomonas aeruginosa PAO1 AmpC RNA level assessed as AmpC RNA level relative to Pseudomonas aeruginosa PAO1
Pseudomonas aeruginosa [25] = test: Antipseudomonal activity against pseudomonas aeruginosa PAOdeltaampD AmpC RNA level assessed as AmpC RNA level relative to Pseudomonas aeruginosa PAO1
Pseudomonas aeruginosa [26] = test: Antipseudomonal activity against pseudomonas aeruginosa PAOdeltaC AmpC RNA level assessed as AmpC RNA level relative to Pseudomonas aeruginosa PAO1
Pseudomonas aeruginosa [27] = test: Antipseudomonal activity against pseudomonas aeruginosa PAOdeltaC+pUCP-(PDC-1) assessed as AmpC RNA level relative to Pseudomonas aeruginosa PAO1
Pseudomonas aeruginosa [28] = test: Antipseudomonal activity against pseudomonas aeruginosa PAOdeltaC+pUCP-(PDC-5) assessed as AmpC RNA level relative to Pseudomonas aeruginosa PAO1
Pseudomonas aeruginosa [29] = test: Antipseudomonal activity against pseudomonas aeruginosa Pseudomonas aeruginosa 23/14-053 (ST-309) assessed as AmpC RNA level relative to Pseudomonas aeruginosa PAO1
Pseudomonas aeruginosa [30] = test: Antipseudomonal activity against pseudomonas aeruginosa Pseudomonas aeruginosa 13/09-018 (ST-175) assessed as AmpC RNA level relative to Pseudomonas aeruginosa PAO1
Pseudomonas aeruginosa [31] = test: Antipseudomonal activity against pseudomonas aeruginosa Pseudomonas aeruginosa 17/14-017 (ST-235) assessed as AmpC RNA level relative to Pseudomonas aeruginosa PAO1
Pseudomonas aeruginosa [32] = test: Antipseudomonal activity against pseudomonas aeruginosa Pseudomonas aeruginosa 36/14-210 (ST-235) assessed as AmpC RNA level relative to Pseudomonas aeruginosa PAO1
Pseudomonas aeruginosa [33] = test: Antipseudomonal activity against pseudomonas aeruginosa Pseudomonas aeruginosa 53/22-113 (ST-244) assessed as AmpC RNA level relative to Pseudomonas aeruginosa PAO1
Pseudomonas aeruginosa [34] = test: Antipseudomonal activity against pseudomonas aeruginosa Pseudomonas aeruginosa 6/04-224 (ST-175) assessed as AmpC RNA level relative to Pseudomonas aeruginosa PAO1
Pseudomonas aeruginosa [35] = test: Antipseudomonal activity against pseudomonas aeruginosa Pseudomonas aeruginosa PAHUAC-14 (ST-966) assessed as AmpC RNA level relative to Pseudomonas aeruginosa PAO1
Pseudomonas aeruginosa [36] = test: Antipseudomonal activity against pseudomonas aeruginosa Pseudomonas aeruginosa PAHUAC-27(ST-22) assessed as AmpC RNA level relative to Pseudomonas aeruginosa PAO1

## CC(C)(O/N=C(\C(=O)N[C@@H]1C(=O)N2C(C(=O)[O-])=C(C[n+]3ccccc3)CS[C@H]12)c1csc(N)n1)C(=O)O [CEFTAZIDIME]
Pseudomonas aeruginosa [1]
  MIC: 16 mg/L (≈ 29.3 µM)
Pseudomonas aeruginosa [2]
  MIC: 32 mg/L (≈ 58.5 µM)
Pseudomonas aeruginosa [3]
  MIC: 16 mg/L (≈ 29.3 µM)
Pseudomonas aeruginosa [4]
  MIC: 16 mg/L (≈ 29.3 µM)
Pseudomonas aeruginosa [5]
  MIC: 32 mg/L (≈ 58.5 µM)
Pseudomonas aeruginosa [6]
  MIC: 1 mg/L (≈ 1.83 µM)
Pseudomonas aeruginosa [7]
  MIC: 16 mg/L (≈ 29.3 µM)
Pseudomonas aeruginosa [8]
  MIC: 1 mg/L (≈ 1.83 µM)
Pseudomonas aeruginosa [9]
  MIC: 16 mg/L (≈ 29.3 µM)
Pseudomonas aeruginosa [10]
  MIC: 16 mg/L (≈ 29.3 µM)
Pseudomonas aeruginosa [11]
  MIC: 8 mg/L (≈ 14.6 µM)
Pseudomonas aeruginosa [12]
  MIC: 8 mg/L (≈ 14.6 µM)
Pseudomonas aeruginosa [13]
  MIC: 16 mg/L (≈ 29.3 µM)
Pseudomonas aeruginosa [14]
  MIC: 128 mg/L (≈ 234 µM)
Pseudomonas aeruginosa [15]
  MIC: 64 mg/L (≈ 117 µM)
Pseudomonas aeruginosa [16]
  MIC: 32 mg/L (≈ 58.5 µM)
Pseudomonas aeruginosa [17]
  MIC: 64 mg/L (≈ 117 µM)
Pseudomonas aeruginosa [18]
  MIC: 32 mg/L (≈ 58.5 µM)
Pseudomonas aeruginosa [19]
  FC: 36 µg/mL
Pseudomonas aeruginosa [20]
  fold change (FC): 1021.4
Pseudomonas aeruginosa [21]
  fold change (FC): 472.3
Pseudomonas aeruginosa [22]
  fold change (FC): 1109.9
Pseudomonas aeruginosa [23]
  fold change (FC): 1030.2
Pseudomonas aeruginosa [24]
  fold change (FC): 1
Pseudomonas aeruginosa [25]
  fold change (FC): 51.4
Pseudomonas aeruginosa [26]
  fold change (FC): 0
Pseudomonas aeruginosa [27]
  fold change (FC): 1933.4
Pseudomonas aeruginosa [28]
  fold change (FC): 4084.8
Pseudomonas aeruginosa [29]
  fold change (FC): 6.4
Pseudomonas aeruginosa [30]
  fold change (FC): 2.4
Pseudomonas aeruginosa [31]
  fold change (FC): 32.8
Pseudomonas aeruginosa [32]
  fold change (FC): 18.6
Pseudomonas aeruginosa [33]
  fold change (FC): 1415.3
Pseudomonas aeruginosa [34]
  fold change (FC): 10.1
Pseudomonas aeruginosa [35]
  fold change (FC): 586.3
Pseudomonas aeruginosa [36]
  fold change (FC): 326.4
